Experimental data taken from publication PMC3632306 (Journal of medicinal chemistry, 2013).
“Also recorded” adds a separate entry of the source.

How the values were obtained:
U87-MG cells = experiment: U87-MG cell viability; assay type: cell-based, human; conditions: concentrations up to 10 μM, relative to DMSO, 10% FBS
[1] = tested on: U87-MG glioblastoma cells; experiment: Invasive migration in U87-MG cells; assay type: cell-based, human; conditions: for Invasive migration in U87-MG cells: 100 nM to 10 μM, 48 hours
PLD1 = target: T1, PLD1 (Homo sapiens, UniProt Q13393)
T1 sequence (Q13393 1-1074): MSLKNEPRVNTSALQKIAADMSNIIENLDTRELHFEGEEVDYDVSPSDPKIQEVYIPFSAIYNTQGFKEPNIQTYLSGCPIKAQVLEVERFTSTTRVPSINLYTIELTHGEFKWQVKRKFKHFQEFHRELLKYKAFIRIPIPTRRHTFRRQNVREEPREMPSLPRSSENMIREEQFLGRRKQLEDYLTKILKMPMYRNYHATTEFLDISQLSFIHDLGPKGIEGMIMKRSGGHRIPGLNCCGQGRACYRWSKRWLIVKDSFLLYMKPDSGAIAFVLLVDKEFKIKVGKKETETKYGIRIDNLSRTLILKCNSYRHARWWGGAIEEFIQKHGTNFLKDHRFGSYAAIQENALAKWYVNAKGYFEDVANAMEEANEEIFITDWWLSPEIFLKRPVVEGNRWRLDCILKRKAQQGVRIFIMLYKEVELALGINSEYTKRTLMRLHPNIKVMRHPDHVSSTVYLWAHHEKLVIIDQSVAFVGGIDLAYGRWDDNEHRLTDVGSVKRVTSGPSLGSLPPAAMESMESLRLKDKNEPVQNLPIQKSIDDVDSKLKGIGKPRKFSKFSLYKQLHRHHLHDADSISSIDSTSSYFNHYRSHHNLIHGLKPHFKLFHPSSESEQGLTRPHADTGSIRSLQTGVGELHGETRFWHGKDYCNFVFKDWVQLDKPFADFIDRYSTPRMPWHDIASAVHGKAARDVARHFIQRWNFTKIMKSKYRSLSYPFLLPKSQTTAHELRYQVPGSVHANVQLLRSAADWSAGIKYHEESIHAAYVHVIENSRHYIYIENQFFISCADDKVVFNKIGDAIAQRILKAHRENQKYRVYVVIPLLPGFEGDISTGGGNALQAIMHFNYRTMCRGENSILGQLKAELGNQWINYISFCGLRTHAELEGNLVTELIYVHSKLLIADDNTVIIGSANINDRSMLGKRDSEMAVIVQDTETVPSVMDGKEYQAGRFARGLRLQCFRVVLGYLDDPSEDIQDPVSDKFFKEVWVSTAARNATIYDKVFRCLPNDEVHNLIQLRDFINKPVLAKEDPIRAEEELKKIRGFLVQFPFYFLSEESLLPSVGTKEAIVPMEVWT

PLD2 = PLD2 (Homo sapiens, UniProt O14939); conditions: purified PLD proteins; data comparable to cell-based assay
[2] = not given; remark: listed apart in the source
in vivo = conditions: mouse, ip, 10 mg/kg

Chain of PLD2 (O14939 whole entry, species assumed): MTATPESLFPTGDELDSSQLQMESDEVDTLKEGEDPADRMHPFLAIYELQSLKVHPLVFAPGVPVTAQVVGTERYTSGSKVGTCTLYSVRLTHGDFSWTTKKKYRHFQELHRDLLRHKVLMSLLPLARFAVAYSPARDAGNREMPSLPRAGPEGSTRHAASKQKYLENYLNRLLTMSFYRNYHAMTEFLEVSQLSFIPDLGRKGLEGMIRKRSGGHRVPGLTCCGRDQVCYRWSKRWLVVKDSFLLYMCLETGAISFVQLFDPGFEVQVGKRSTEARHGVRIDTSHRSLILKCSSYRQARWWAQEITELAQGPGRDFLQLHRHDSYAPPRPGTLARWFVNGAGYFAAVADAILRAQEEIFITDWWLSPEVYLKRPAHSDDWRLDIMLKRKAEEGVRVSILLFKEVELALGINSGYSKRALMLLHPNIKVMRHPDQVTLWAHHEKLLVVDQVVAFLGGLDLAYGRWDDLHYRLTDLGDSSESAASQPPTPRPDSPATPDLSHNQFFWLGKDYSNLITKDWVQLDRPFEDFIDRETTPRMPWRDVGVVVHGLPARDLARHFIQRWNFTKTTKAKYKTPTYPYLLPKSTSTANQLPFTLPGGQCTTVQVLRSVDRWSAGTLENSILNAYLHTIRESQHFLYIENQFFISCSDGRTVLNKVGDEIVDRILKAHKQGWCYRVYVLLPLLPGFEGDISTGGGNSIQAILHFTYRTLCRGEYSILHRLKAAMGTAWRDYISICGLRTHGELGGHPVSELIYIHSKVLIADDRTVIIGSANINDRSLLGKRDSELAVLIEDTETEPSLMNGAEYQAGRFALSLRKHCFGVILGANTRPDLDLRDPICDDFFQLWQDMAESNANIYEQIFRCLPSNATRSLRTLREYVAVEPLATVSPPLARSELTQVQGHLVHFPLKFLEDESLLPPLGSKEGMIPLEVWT

| SMILES | Effect on U87-MG cell viability (U87-MG cells) | Invasive migration in U87-MG cells [1] | Dose at which decrease in invasive migration reached statistical significance ([1]; U87-MG cells) [µM] | Concentration up to which PLD1 is not inhibited (PLD1) [µM] | PLD1 inhibition (PLD1) | Direct action on PLD2 in biochemical assay (PLD2) | Rat CLHEP [mL/min/kg] | Human CLHEP [2] [mL/min/kg] | AUC at 6 h (in vivo) [µM·h] |
| --- | --- | --- | --- | --- | --- | --- | --- | --- | --- |
| O=C(NCCN1CCC2(CC1)C(=O)NCN2c1cccc(F)c1)c1ccc(F)c(F)c1 [ML298, 3,4-Difluoro-N-(2-(1-(3-fluorophenyl)-4-oxo-1,3,8-triazaspiro[4.5]decan-8yl)ethyl)benzamide] | no effect | dose-dependent decrease; also recorded: decreased invasive migration | 10 | > 20 | no inhibition of PLD1 | acted directly on PLD2 | 60.9 | 17.8 | 1.55 |
| Cc1cccc(N2CNC(=O)C23CCN(C[C@H](C)NC(=O)c2ccc(Br)cc2)CC3)c1 [ML299] | no effect | dose-dependent decrease; also recorded: decreased invasive migration | – | – | – | – | – | – | – |
